Data on 26 compounds can be found in US7271170B2, “Imidazo-pyrimidines and triazolo-pyrimidines: benzodiazepine receptor ligands” (Neurogen Corporation, priority 2003, dated 2007).

pKd, pKi: −log10 of the molar value.

In one experiment the target is benzodiazepine site of the GABAA receptor. The experiment is described as follows: Ligand binding assay of Example 6 (3H-Ro15-1788 competition, purified rat cortical membranes). As to conditions: ligand binding assay of Example 6; Table 5 Ki.
Turning to `CCOc1c(Cn2ccnc2-c2ncccc2F)ncn2nc(C)nc12` [Compound 243, 8-Ethoxy-7-[2-(3-fluoro-pyridin-2-yl)-imidazol-1-ylmethyl]-2-methyl-[1,2,4]triazolo[1,5-c]pyrimidine], the pKi was over 6.00. `CCC(O)c1c(Cn2ccnc2-c2cccc(F)n2)ncn2nc(C)nc12` (centres unmarked) [Compound 221, 1-{7-[2-(6-Fluoro-pyridin-2-yl)-imidazol-1-ylmethyl]-2-methyl-[1,2,4]triazolo[1,5-c]pyrimidin-8-yl}-propan-1-ol] gave a pKi of over 6.00.

Compound `CCCc1c(Cn2ccnc2-c2ncccc2F)ncn2nc(COC(C)C)nc12` [Compound 263, 7-{[2-(3-fluoropyridin-2-yl)-1H-imidazol-1-yl]methyl}-2-(isopropoxymethyl)-8-propyl[1,2,4]triazolo[1,5-c]pyrimidine] showed a pKi of over 6.00.

Compound `CCCc1c(Cn2ccnc2-c2cccc(C#N)n2)ncn2nc(C)nc12` [Compound 262, 6-{1-[(2-methyl-8-propyl[1,2,4]triazolo[1,5-c]pyrimidin-7-yl]methyl]-1H-imidazol-2-yl}pyridine-2-carbonitrile] showed a negative logarithm of the Ki (pKi) of over 6.00.

Consider `CCCc1c(Cn2ccnc2-c2ncccc2C#N)ncn2nc(C)nc12` [Compound 242, 2-[1-(2-methyl-8-propyl-[1,2,4]triazolo[1,5-c]pyrimidin-7-ylmethyl)-1H-imidazol-2-yl]-nicotinonitrile], for which the negative logarithm of the Ki (pKi) was over 6.00. Same read-out and setting: then `CCCc1c(Cn2ccnc2-c2ncccc2F)ncn2nc(N(CCC)CCC)nc12` [Compound 259, 7-{[2-(3-fluoropyridin-2-yl)-1H-imidazol-1-yl]methyl}-N,N,8-tripropyl[1,2,4]triazolo[1,5-c]pyrimidin-2-amine], with over 6.00.

Turning to `CCCc1c(Cn2ccnc2-c2cccc(F)n2)ncn2nc(C(C)(C)O)nc12` [Compound 252, 2-(7-{[2-(6-fluoropyridin-2-yl)-1H-imidazol-1-yl]methyl}-8-propyl[1,2,4]triazolo[1,5-c]pyrimidin-2-yl)propan-2-ol], the pKi was over 6.00. As for `CCCc1c(Cn2ccnc2-c2ncccc2F)ncn2nc(-c3nccs3)nc12` [Compound 258, 7-{[2-(3-fluoropyridin-2-yl)-1H-imidazol-1-yl]methyl}-8-propyl-2-(1,3-thiazol-2-yl)[1,2,4]triazolo[1,5-c]pyrimidine], the pKi is over 6.00. The compound `CCCc1c(Cn2ccnc2-c2cccc(C#N)n2)ncn2nc(COC(C)C)nc12` [Compound 264, 6-(1-{[2-(isopropoxymethyl)-8-propyl[1,2,4]triazolo[1,5-c]pyrimidin-7-yl]methyl}-1H-imidazol-2-yl)pyridine-2-carbonitrile] showed a pKi of over 6.00. `Cc1nc2c(CCCCl)c(Cn3ccnc3-c3ncccc3F)ncn2n1` [Compound 230, 8-(3-Chloro-propyl)-7-[2-(3-fluoro-pyridin-2-yl)-imidazol-1-ylmethyl]-2-methyl-[1,2,4]triazolo[1,5-c]pyrimidine] showed a pKi of over 6.00.

As to `CCCc1c(Cn2ccnc2-c2cccc(F)n2)nc(C)n2nc(C)nc12` [Compound 217, 7-[2-(6-Fluoro-pyridin-2-yl)-imidazol-1-ylmethyl]-2,5-dimethyl-8-propyl-[1,2,4]triazolo[1,5-c]pyrimidine], the negative-log Ki (pKi) is over 6.00. `CCCc1c(Cn2ccnc2-c2ncccc2F)ncn2nc(C(=O)OC)nc12` [Compound 251, methyl 7-{[2-(3-fluoropyridin-2-yl)-1H-imidazol-1-yl]methyl}-8-propyl[1,2,4]triazolo[1,5-c]pyrimidine-2-carboxylate] showed a negative logarithm of the Ki (pKi) of over 6.00.

As for `CCCc1c(Cn2ccnc2-c2cccc(C#N)n2)ncn2nc(COCC)nc12` [Compound 260, 6-(1-{[2-(ethoxymethyl)-8-propyl[1,2,4]triazolo[1,5-c]pyrimidin-7-yl]methyl}-1H-imidazol-2-yl)pyridine-2-carbonitrile], the pKi was over 6.00. Same read-out and setting: the figure for `Cc1nc2c(CCCF)c(Cn3ccnc3-c3ncccc3F)ncn2n1` [Compound 232, 8-(3-Fluoro-propyl)-7-[2-(3-fluoro-pyridin-2-yl)-imidazol-1-ylmethyl]-2-methyl-[1,2,4]triazolo[1,5-c]pyrimidine] is over 6.00. In turn, `FCCCc1c(Cn2ccnc2-c2ncccc2F)ncn2ncnc12` [Compound 233, 8-(3-Fluoro-propyl)-7-[2-(3-fluoro-pyridin-2-yl)-imidazol-1-ylmethyl]-[1,2,4]triazolo[1,5-c]pyrimidine] showed a pKi of over 6.00. `C/C=C/c1c(Cn2ccnc2-c2ncccc2F)ncn2nc(C)nc12` [Compound 224, 7-[2-(3-Fluoro-pyridin-2-yl)-imidazol-1-ylmethyl]-2-methyl-8-propenyl-[1,2,4]triazolo[1,5-c]pyrimidine] gave a negative-log Ki (pKi) of over 6.00. The same measure, in the same setting: then `CCCc1c(Cn2ccnc2-c2ncccc2F)ncn2nc(N)nc12` [Compound 248, 7-{[2-(3-fluoropyridin-2-yl)-1H-imidazol-1-yl]methyl}-8-propyl[1,2,4]triazolo[1,5-c]pyrimidin-2-amine], with over 6.00. In the case of `CCCc1c(Cn2cc(Cl)nc2-c2ncccc2F)ncn2ncnc12` [Compound 241, 7-[4-Chloro-2-(3-fluoro-pyridin-2-yl)-imidazol-1-ylmethyl]-8-propyl-[1,2,4]triazolo[1,5-c]pyrimidine], the pKi was over 6.00. Turning to `CCCc1c(Cn2ccnc2-c2cccc(C#N)n2)ncn2nc(COC)nc12` [Compound 253, 6-(1-{[2-(methoxymethyl)-8-propyl[1,2,4]triazolo[1,5-c]pyrimidin-7-yl]methyl}-1H-imidazol-2-yl)pyridine-2-carbonitrile], the pKi was over 6.00. With `CCOc1c(Cn2ccnc2-c2ncccc2F)ncn2ncnc12` [Compound 245, 8-ethoxy-7-{[2-(3-fluoropyridin-2-yl)-1H-imidazol-1-yl]methyl}[1,2,4]triazolo[1,5-c]pyrimidine], the pKi was over 6.00.

For `CCCc1c(Cn2ccnc2-c2ncccc2F)ncn2nc(C(N)=O)nc12` [Compound 239, 7-[2-(3-Fluoro-pyridin-2-yl)-imidazol-1-ylmethyl]-8-propyl-[1,2,4]triazolo[1,5-c]pyrimidine-2-carboxylic acidamide], the negative-log Ki (pKi) is over 6.00. Take `CCC(O)c1c(Cn2ccnc2-c2ncccc2F)ncn2nc(C)nc12` (centres unmarked) [Compound 222, 1-{7-[2-(3-Fluoro-pyridin-2-yl)-imidazol-1-ylmethyl]-2-methyl-[1,2,4]triazolo[1,5-c]pyrimidin-8-yl}-propan-1-ol]: the pKi is over 6.00.

Compound `CCCc1c(Cn2ccnc2-c2ncccc2F)ncn2nc(C(=O)OCC)nc12` [Compound 238, 7-[2-(3-Fluoro-pyridin-2-yl)-imidazol-1-ylmethyl]-8-propyl-[1,2,4]triazolo[1,5-c]pyrimidine-2-carboxylic acidethyl ester] gave a negative-log Ki (pKi) of over 6.00.

The compound `CCCc1c(Cn2ccnc2-c2ncccc2F)ncn2nc(OCC)nc12` [Compound 247, 2-ethoxy-7-{[2-(3-fluoropyridin-2-yl)-1H-imidazol-1-yl]methyl}-8-propyl[1,2,4]triazolo[1,5-c]pyrimidine] had a pKi of over 6.00. Regarding `CCc1nc2c(CC)c(Cn3ccnc3-c3cc(F)ccc3C)ncn2n1` [Compound 219, 2,8-Diethyl-7-[2-(5-fluoro-2-methyl-phenyl)-imidazol-1-ylmethyl]-[1,2,4]triazolo[1,5-c]pyrimidine], the pKi was over 6.00.

Still in this experiment, the particulars now being: radioligand; previously determined, used in Cheng-Prusoff equation; read-out: Kd, binding dissociation constant of 3H-Ro15-1788.
As to `CCOC(=O)c1ncn2c1CN(C)C(=O)c1cc(F)ccc1-2` [^3H-Ro15-1788, reference compound], the pKd is 9.00.
